Inhibition and IC50 data for 48 compounds are collected here from patent publication US20130324522A1, “INSECT ODORANT RECEPTOR ANTAGONISTS” (THE ROCKEFELLER UNIVERSITY, priority 2010, published 2013).

pIC50: −log10 of the molar value. Like-named read-outs stand apart in the source and are kept apart here. Where only a bound is given, the exact number is not on record here.

This experiment concerns the target OR10/OR7 (Anopheles gambiae, UniProt B5U0U7+Q7QCC7). Nature of the experiment: Ca2+-imaging of stable HEK293T cell line OR10/OR7. The format is cell-based. Particulars: for inhibition at 4 µM: HEK-293T, read-out: Percent Inhibition OR10 OR7. Here is the method:
Stable cell lines OR1/OR7, OR2/OR7, OR8/OR7, OR10/OR7, OR28/OR7 and TRPM8 were generated from HEK293T cells. HEK293T-based cell lines were cultured in DMEM supplemented with these additional antibiotics: 6 μg/mL blasticidin and 1 μg/mL puromycin, with the exception of the TRPM8 cell lines, which was cultured in DMEM supplemented with 1 μg/mL puromycin.
After one day of incubation, the transfected cells were transferred into 10 cm dishes with DMEM containing antibiotics as follows: • 0.5 μg/mL of blasticidin for OR1/OR7, OR2/OR7, OR8/OR7, OR10/OR7, OR28/OR7 • 0.2 μg/mL of puromycin for TRPM8.
Stable cell lines were cultured in 10 cm dishes, and confluent cells (70-80%) were trypsinized. 10,000 cells/20 μL were transferred into each well of 384-well plates coated with poly-D-lysine, and cultured for 2 days. For Flip-In T-Rex cells (cell lines expressing Or47a/Or83b and 5HT3), 5 μL of tetracycline (5 μg/mL) were added 1 day before the assay. 20 μL of Ca-4 dye was loaded into each well for 1.5 hr at room temperature in the dark, and the dye-loaded plates were subjected to Ca^2+-imaging using a Hamamatsu FDSS6000 real time fluorescence plate reader. Odorant solutions (9× final concentration) were prepared by dissolving 1M stock solutions into Hank's Buffered Salt Solution (HBSS), and 30 μL of odor solution was transferred to each well in 384-well plates.
Compounds ([…] in DMSO) were stored in 384-well plates, and last two columns (32 wells total) contained only DMSO. 200 nL of small compounds were transferred into the odorant plates before the assay using the Perkin-Elmer Janus workstation. The odorant plates were spun down to remove air bubbles, and placed on the FDSS6000 plate loader, and 5 μL of odorant solution was applied to the cell plate on the FDSS6000. Ca^2+ increase was monitored with fluorescence at 525 nm by excitation at 485 nm.

Sequence of OR10/OR7 (Q7QCC7 whole entry): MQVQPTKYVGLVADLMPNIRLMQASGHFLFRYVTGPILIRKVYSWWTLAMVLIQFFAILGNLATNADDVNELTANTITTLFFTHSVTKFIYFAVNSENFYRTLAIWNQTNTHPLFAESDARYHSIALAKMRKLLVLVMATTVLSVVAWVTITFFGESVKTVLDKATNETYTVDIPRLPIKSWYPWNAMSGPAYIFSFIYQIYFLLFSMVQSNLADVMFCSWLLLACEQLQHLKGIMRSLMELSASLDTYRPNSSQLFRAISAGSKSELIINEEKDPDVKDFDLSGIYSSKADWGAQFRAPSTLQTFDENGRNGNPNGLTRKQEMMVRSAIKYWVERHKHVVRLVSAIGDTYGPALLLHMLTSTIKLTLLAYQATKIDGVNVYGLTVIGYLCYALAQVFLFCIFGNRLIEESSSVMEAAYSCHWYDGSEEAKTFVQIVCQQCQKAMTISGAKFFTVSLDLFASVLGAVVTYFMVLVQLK
Sequence of OR10/OR7 (B5U0U7 entry or part of it): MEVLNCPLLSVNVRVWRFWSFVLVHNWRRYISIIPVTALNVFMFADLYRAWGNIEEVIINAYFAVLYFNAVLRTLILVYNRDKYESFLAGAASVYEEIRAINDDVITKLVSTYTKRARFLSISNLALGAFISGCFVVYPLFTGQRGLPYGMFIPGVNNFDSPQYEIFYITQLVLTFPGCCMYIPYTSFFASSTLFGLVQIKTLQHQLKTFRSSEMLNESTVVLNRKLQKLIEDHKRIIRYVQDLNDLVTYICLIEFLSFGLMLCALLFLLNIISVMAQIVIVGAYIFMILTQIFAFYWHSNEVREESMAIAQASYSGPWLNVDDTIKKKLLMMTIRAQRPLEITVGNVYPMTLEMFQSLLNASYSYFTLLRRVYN

One may read the inhibition as the change of the read-out against control, counted positive when it falls. For `C=CCNC(=O)C(NC(=O)c1cccc(C)c1)C1CCN(C(=O)c2cccc(Br)c2)CC1` (stereo not shown) [RU-0039123], the inhibition at 4 µM (compound applied at 4 μM) was 26 to 50%.
Still for that read-out and setting: with `COc1ccccc1CC(=O)N1CCOC(COc2ccc(C)cc2)C1` (stereo not shown) [RU-0050390] the figure was less than 25%; with `Cc1cc(N(C)C2CCCCC2)nc(SCc2cccc(C(=O)N3CCCC3)c2)n1` [RU-0034108], 26 to 50%.
Usually pIC50 stands for the IC50 on a negative log10 scale, so that one unit is a factor of ten. With `C=CCN(Cc1nccn1Cc1ccc(Cl)c(Cl)c1)C(=O)c1ccccc1F` [RU-0047955], for the setting “compound applied at 4 μM”, the inhibition at 4 µM was greater than 75%. In addition, the pIC50 (Table B, read-out: IC50 OR10) is greater than 7.00.
`Fc1ccccc1/C=N/Nc1nc(N2CCCCC2)nc(N2CCOCC2)n1` [RU-0018338]: the inhibition at 4 µM (compound applied at 4 μM) lay in the range of 26 to 50%.
Take `CCc1cc(N2CCCC2)nc(SCc2ccc(C(=O)N3CCOCC3)o2)n1` [RU-0047568]: the inhibition at 4 µM (compound applied at 4 μM) was greater than 75%. The pIC50 (Table B, read-out: IC50 OR10) is greater than 7.00.
On to `COc1cccc(-c2nnc(SCCCC(=O)N3CCN(C(=O)CC(C)(C)C)C(C)C3)n2-c2ccc(C)cc2)c1` (stereo not shown) [RU-0071818], for which the inhibition at 4 µM (compound applied at 4 μM) fell in the range of 51 to 74%. Moreover, where the note is “Table B, read-out: IC50 OR10”, the pIC50 was less than 6.00.
The corresponding values for `C=CCN(Cc1nccn1Cc1ccccc1C)C(=O)CC(C)C` [RU-0058298] are greater than 75% and greater than 7.00.
As to `O=C(CCC1CCN(C(=O)c2cccc(-n3cccn3)c2)CC1)Nc1ccccc1` [RU-0032465], the inhibition at 4 µM (compound applied at 4 μM) is less than 25%.
Take `CC(C)CN(Cc1nccn1Cc1c(F)cccc1Cl)C(=O)c1ccc(F)cc1` [RU-0048054]: where the note is “compound applied at 4 μM”, the inhibition at 4 µM was in the range of 51 to 74%. The pIC50 (Table B, read-out: IC50 OR10) was greater than 7.00.
As to `CCOC(=O)CCC(=O)N(CCc1ccccc1)CC(=O)Nc1cc(C(C)(C)C)nn1-c1ccccc1C` [RU-0072462], the inhibition at 4 µM (compound applied at 4 μM) lay within 26 to 50%.
Turning to `COCCCN(Cc1c(-c2ccccc2)noc1N1CCCC1)C(=O)c1ccc(F)cc1` [RU-0037386], the inhibition at 4 µM (compound applied at 4 μM) lay within 26 to 50%.
In the case of `CCN(CC)C(=O)Oc1ccc2c(ccn2Cc2cccc(C)c2)c1NC(=O)CCCCC(=O)OC` [RU-0075445], the inhibition at 4 µM was less than 25%.
As to `COc1ccccc1C(=O)C1CCCN(C(=O)c2cccc(N3CCOCC3)c2)C1` (stereo not shown) [RU-0029350], the inhibition at 4 µM (compound applied at 4 μM) was 51 to 74%. For the setting “Table B, read-out: IC50 OR10”, the negative-log IC50 (pIC50) is less than 6.00.
With `CCOC(=O)c1c(NC(C)=O)c(-c2ccc(OC)cc2)cn1Cc1ccccc1` [RU-0077733], the inhibition at 4 µM (compound applied at 4 μM) was 26 to 50%.
The same measure, in the same setting: with `C=CCOc1cccc(C(=O)N2CCCC(C(=O)c3ccccc3OC)C2)c1` (stereo not shown) [RU-0029409] the figure was 26 to 50%.
With `O=C(C1CCC1)N(Cc1ccco1)Cc1nccn1Cc1ccccc1Cl` [RU-0048066], the inhibition at 4 µM (compound applied at 4 μM) fell in the range of 51 to 74%. For the same compound, for the setting “Table B, read-out: IC50 OR10”, the pIC50 was greater than 7.00.
Take `O=C(c1c(F)c(F)cc(F)c1F)N1CCOC(Cc2ccccc2)C1` (stereo not shown) [RU-0050393]: the inhibition at 4 µM (compound applied at 4 μM) lay within 51 to 74%. Also, the pIC50 (Table B, read-out: IC50 OR10) was less than 6.00.
The corresponding values for `CCn1c(C)c(C(=O)CN(CC2CCCO2)C(=O)C2C[C@H]2c2ccccc2)c(C)c1C(=O)OC` (stereo partly shown) [RU-0071273] are 51 to 74% and greater than 7.00.
Take `O=C(NCCC(=O)N1CCOC(COCc2ccc(F)cc2Cl)C1)OCc1ccccc1` (stereo not shown) [RU-0050344]: the inhibition at 4 µM (compound applied at 4 μM) is 26 to 50%.
On to `COCCCN(Cc1c(-c2ccccc2)noc1N1CCC(C)CC1)C(=O)c1ccccc1F` [RU-0036876], for which the inhibition at 4 µM (compound applied at 4 μM) is less than 25%.
Same read-out and setting: with `Cc1cccc(NC(=O)CCC2CCN(C(=O)CCOc3ccccc3)CC2)c1` [RU-0030324] the figure was 26 to 50%.
Consider `CCc1c(C(=O)NCc2cccnc2)cnn1-c1ccccc1` [RU-0048504], for which, where the note is “compound applied at 4 μM”, the inhibition at 4 µM was 51 to 74%. Further, where the note is “Table B, read-out: IC50 OR10”, the pIC50 was greater than 7.00.
Consider `CCN(CC)c1onc(-c2ccccc2)c1CN(CC1CCCO1)C(=O)c1ccc2c(c1)OCO2` (stereo not shown) [RU-0036875], for which the inhibition at 4 µM (compound applied at 4 μM) lay within 26 to 50%.
Turning to `CC(=O)OCC(=O)NCC1Cc2cc(Oc3ccccc3)ccc2O1` (stereo not shown) [RU-0079120], the inhibition at 4 µM (compound applied at 4 μM) is greater than 75%. Further, the pIC50 (Table B, read-out: IC50 OR10) is greater than 7.00.
On to `COc1ccc(-c2cc(-c3ccccc3)n(C(=O)CN3CCN(Cc4ccccc4)CC3)n2)cc1` [RU-0038795], for which the inhibition at 4 µM (compound applied at 4 μM) is less than 25%.
As to `Cc1ccccc1C(=O)N[C@@H]1CCCCC1NC(=O)C1CCN(C(=O)c2ccc(C(C)(C)C)cc2)CC1` (stereo partly shown) [RU-0045678], the inhibition at 4 µM (compound applied at 4 μM) is greater than 75%. In addition, the pIC50 (Table B, read-out: IC50 OR10) was less than 6.00.
In the case of `COc1cccc(NC(=O)CCC2CCN(C(=O)CSc3ccccc3)CC2)c1` [RU-0032474], where the note is “compound applied at 4 μM”, the inhibition at 4 µM was less than 25%.
For the compound `C=CCN(Cc1nccn1Cc1ccccc1F)C(=O)C1CCCC1` [RU-0058964], the inhibition at 4 µM (compound applied at 4 μM) is greater than 75%. Moreover, the pIC50 (Table B, read-out: IC50 OR10) was greater than 7.00.
The corresponding values for `COc1ccc(-n2c(Cc3ccccc3)nnc2SCCCC(=O)N2CCN(C(=O)c3ccc(C(F)(F)F)cc3)C(C)C2)cc1` (stereo not shown) [RU-0071828] are 26 to 50% and less than 6.00.
Consider `O=C(c1cccnc1Cl)N1CCOC(COCc2c(Cl)cccc2Cl)C1` (stereo not shown) [RU-0050372], for which the inhibition at 4 µM (compound applied at 4 μM) was in the range of 26 to 50%.
The same measure, in the same setting: with `COCCN(Cc1nccn1Cc1c(F)cccc1Cl)C(=O)CCc1ccccc1` [RU-0058550] the figure was 26 to 50%.
With `Cc1ccc(-c2nnc(SCCCC(=O)N3CCN(C(=O)c4cccc(F)c4)C(C)C3)n2-c2ccc(C)cc2)cc1` (stereo not shown) [RU-0071789], under “compound applied at 4 μM”, the inhibition at 4 µM is greater than 75%. The pIC50 (Table B, read-out: IC50 OR10) was greater than 7.00.
For `Cc1cc(C)c(Cn2ccnc2CN(C(=O)c2ccccc2F)C(C)C)c(C)c1` [RU-0048001], in that order: greater than 75% and greater than 7.00.
Regarding `CCN(C)c1onc(-c2ccccc2)c1CN(CCCOC)C(=O)c1ccco1` [RU-0051926], the inhibition at 4 µM (compound applied at 4 μM) fell in the range of 26 to 50%.
The same measure, in the same setting: next, `CCOC(=O)C1CCCN(C(=O)c2csc(CSc3nnc(-c4cccc(OC)c4)n3-c3ccc(C)cc3)n2)C1` (stereo not shown) [RU-0071628]: less than 25%.
With `N#Cc1ccccc1C(=O)N1CCOC(COCc2c(Cl)cccc2Cl)C1` (stereo not shown) [RU-0050405], the inhibition at 4 µM (compound applied at 4 μM) is 26 to 50%. Moreover, the pIC50 (Table B, read-out: IC50 OR10) was less than 6.00.
The corresponding values for `O=C(c1ccco1)N(Cc1nccn1Cc1c(F)cccc1Cl)C1CC1` [RU-0048046] are 51 to 74% and greater than 7.00.
For the compound `O=C(Cc1cccc(F)c1)N1CCOC(COCc2c(Cl)cccc2Cl)C1` (stereo not shown) [RU-0050398], the inhibition at 4 µM (compound applied at 4 μM) is less than 25%.
`O=C(c1ccco1)N(Cc1ccco1)Cc1nccn1Cc1ccccc1F` [RU-0047694]: where the note is “compound applied at 4 μM”, the inhibition at 4 µM fell in the range of 51 to 74%. For the same compound, the pIC50 (Table B, read-out: IC50 OR10) was greater than 7.00.
As to `CCN(CC)C(=O)Oc1ccc2c(ccn2Cc2ccc(Cl)cc2)c1NC(=O)C1CC1` [RU-0075475], the pIC50 is greater than 7.00 and the inhibition at 4 µM was greater than 75%.
For `O=C(c1cccc(F)c1)N(Cc1c(-c2ccccc2)noc1N1CCCC1)CC1CCCO1` (stereo not shown) [RU-0037434], the inhibition at 4 µM (compound applied at 4 μM) is 26 to 50%.
As for `Cc1c(C(=O)NCc2ccco2)cnn1-c1ccccc1` [RU-0047765], the inhibition at 4 µM (compound applied at 4 μM) fell in the range of 51 to 74%. Besides, the pIC50 (Table B, read-out: IC50 OR10) was greater than 7.00.
In the case of `COCCCN(Cc1c(-c2ccccc2)noc1N(C)C(C)C)C(=O)c1ccccc1OC` [RU-0037003], the inhibition at 4 µM (compound applied at 4 μM) was less than 25%.
In the case of `CC(C)CN(Cc1nccn1Cc1ccc(Cl)cc1Cl)C(=O)c1ccccc1F` [RU-0055322], the inhibition at 4 µM (compound applied at 4 μM) was 51 to 74%. In addition, under “Table B, read-out: IC50 OR10”, the pIC50 is greater than 7.00.
Regarding `COCCN(Cc1c(-c2ccccc2)noc1N1CCSCC1)CC(O)COCc1ccco1` (stereo not shown) [RU-0037278], for the setting “compound applied at 4 μM”, the inhibition at 4 µM lay in the range of 26 to 50%.
Turning to `c1ccc(CNc2nc(NCc3ccco3)nc(N3CCOCC3)n2)cc1` [RU-0020050], the inhibition at 4 µM (compound applied at 4 μM) was less than 25%.
The same measure, in the same setting: with `O=C(c1ccco1)N(Cc1nccn1Cc1ccccc1Cl)CC1CC1` [RU-0047281] the figure was greater than 75%.
